The record followed here is US8535689B2, “Identification of bacterial autoinducer and use in treating bacterial pathogenicity” (priority 2007, dated 2013).

In series [1] the test system is CAI-1 reporter strain MM920 (V. cholerae El Tor C6706str ΔcqsA ΔluxQ/pBB1 (luxCDABE from V. harveyi)). Description: Bioluminescence assay in V. cholerae CAI-1 reporter strain MM920. The class given is cell-based, Vibrio cholerae. The conditions noted are these: for bioluminescence as a percentage of the bioluminescence activity of the V. cholerae CAI-1 autoinducer: reporter strain MM920, reference (S)-3-hydroxytridecan-4-one (CAI-1), FIG. 13; for activation of the V. cholerae quorum sensing circuit: to different degrees, pattern C13(5)>C13(R)>C12(S)≈C12(R)>C11(S)>C11(R); for activation of the V. cholerae quorum sensing circuit / fold greater biological activity than the molecule one carbon shorter: FIG. 3; for fold greater biological activity than the molecule one carbon shorter: side chain length comparison. The method, then: CAI-1 Purification from E. coli. V. cholerae cqsA (VCA0523) was cloned into pTrc99A and transformed into E. coli strain DH5α. The recombinant strain was grown at room temperature with aeration in 2.4 L of M9 medium supplemented with glucose (4 g/L), leucine (0.5 g/L), and ampicillin (0.1 g/L). cqsA expression was induced for 16 h with 0.5 mM IPTG. Following centrifugation at 10,000×g and passage through a 0.22 μm filter, the cell-free culture fluid was mixed with 0.6 v dichloromethane (DCM) in a reparatory funnel. The organic phase was isolated, evaporated, and assayed for CAI-1 activity using the bioluminescent V. cholerae CAI-1 reporter strain MM920 (V. cholerae El Tor C67O6str ΔcqsA ΔluxQ/pBB1 (luxCDABE from V. harveyi)), as described in Miller et al. (2002). The extract was dissolved in DCM and further purified by passage through silica gel with 0.5 L of 7:3 DCM:methanol, followed by concentration via evaporation. 50-100 mg of the concentrate was dissolved in ˜1 mL DCM, injected onto a (2×25-cm) ethyl-pyridine HPLC column, and eluted using a gradient of increasing ethyl acetate in hexanes (0-80%) at 20 mL/min. Fractions were tested for CAI-1 activity; active fractions were pooled.
Bioluminescence Assays. When assaying column fractions for autoinducer activity, 5% of each fraction was evaporated and dissolved in a mixture of water:acetonitrile (2:1). This preparation was added at 2% volume to the CAI-1 reporter strain MM920 (V. cholerae El Tor C67O6str ΔcqsA ΔluxQ/pBB1 (luxCDABE from V. harveyi)) according to previously described methods, as described in Miller et al. (2002). Synthetic CAI-1 preparations were dissolved in DMSO and supplied at 0.5% total volume to MM920 at specified concentrations.
[…]. Bioluminescence measurements at varying concentrations of analogue (generally from […]) were measured using a Wallac EnVision 2103 Multilabel Reader (Perkin Elmer, Waltham, Mass.).

The subject of series [2] is TcpA, a subunit of the toxin co-regulated pilus (TCP). Description: Western blot of TcpA production in V. cholerae strains treated with synthetic CAI-1. It is filed as cell-based, Vibrio cholerae. As to conditions: ΔluxQ. From the text: Western Blot Analysis. […]. Anti-TcpA antibody and Anti-Rabbit IgG Horseradish Peroxidase Conjugate (Promega) were used with the SuperSignal West Pico Chemiluminescent Substrate (Pierce) system.
Results. A major goal of quorum-sensing research is to develop strategies to artificially manipulate quorum-sensing-controlled processes in bacteria. […]. Proc. Natl. Acad. Sci. USA 84, 2833-2837 (1987), hereby incorporated by reference into this application. […]. […]. Importantly, synthetic CAI-1 had no effect on TcpA production in a ΔluxQ, ΔcqsS strain, which cannot respond to either CAI-1 or AI-2 (FIG. 4b, bottom row). […]
Background: A western blot detects proteins with antibodies after separation by electrophoresis.

Series [3] can be described thus: CAI-1 thermal stability, read with the V. cholerae bioluminescence assay. The class given is physicochemical. As to conditions: pH 7 phosphate buffer, FIG. 6a. The method, then: CAI-1 stock in DMSO was diluted 1:128 into 10 mM potassium phosphate buffer at pH 7 to a final autoinducer concentration of 400 μM. Samples were incubated for specified lengths of time, chilled briefly on ice, and frozen in dry ice/ethanol. Samples were thawed, diluted 1:3 in the same phosphate buffer, and read with the V. cholerae bioluminescence assay. Diluted sample was added at 2.5% of reporter culture volume, for final concentrations of 3.3 μM CAI-1 and 250 μM potassium phosphate.

The nature of series [4]: CAI-1 pH stability, read with the V. cholerae bioluminescence assay. The class given is physicochemical. The conditions noted are these: pH 2, 4, 6, 7, 8, 10, 12 potassium phosphate buffer; 5, 20, 60 minutes or overnight; FIG. 6b. The method, then: CAI-1 stock in DMSO was diluted 1:128 into 100 mM potassium phosphate buffer at specified pH values to a final autoinducer concentration of 400 μM. Following incubation at room temperature for specified times, samples were neutralized with an equal volume of 100 mM potassium phosphate buffer (e.g. pH 10 buffer was added to pH 4 buffered autoinducer). Neutralized samples, now with 200 μM CAI-1, were chilled briefly on ice and frozen in dry ice/ethanol. Autoinducer samples were thawed, diluted 1:3 in 100 mM pH 7 potassium phosphate buffer, and read with the V. cholerae bioluminescence assay. Diluted sample was added at 5% of reporter culture volume, for final concentrations of 3.3 μM CAI-1 and 5 mM potassium phosphate.

In series [5] the test system is E. coli KX1200 (MG1655 ΔluxS). Description: CAI-1 stability in culture with E. coli cells. The class given is in vitro ADME, Escherichia coli. The conditions noted are these: E. coli ΔluxS in LB, 37° C. overnight, 10 μM CAI-1; FIG. 6d. The method, then: (§1) Early stationary phase E. coli KX1200 (MG1655 ΔluxS) and V. cholerae BH1575 (El Tor C6706str ΔluxS ΔcqsA) were diluted to OD 0.1 in LB medium. Along with sterile LB medium, they were shaken overnight at 37° C. with and without 10 μM CAI-1 supplementation. Culture and LB samples were centrifuged at 10,000×g, filtered with 0.22 μm filters, and read at 10% final culture volume using the V. cholerae CAI-1 reporter bioassay.

Series [6] has as its system V. cholerae BH1575 (El Tor C6706str ΔluxS ΔcqsA). Description: CAI-1 stability in culture with V. cholerae cells. It is filed as in vitro ADME, Vibrio cholerae. As to conditions: V. cholerae ΔluxS ΔcqsA in LB, 37° C. overnight, 10 μM CAI-1; FIG. 6d. The method, then:
as §1

Each structure is given as a SMILES string. Entries after “also recorded” stand apart in the source; their conditions may differ.

In the case of `[2H]C([2H])(C)C(O)C(=O)CCCCCCCCC` (stereo not drawn) [2,2-D2-3-hydroxytridecan-4-one], the “bioluminescence as a percentage of the bioluminescence activity of the V. cholerae CAI-1 autoinducer” value (shortened to “bioluminescence as a percentage”) in series [1] is listed as “equivalent activity to CAI-1”.

Turning to `CCCCCCCC(=O)[C@H](O)CC` [C11(R), (R)-3-hydroxyundecan-4-one], the “activation of the V. cholerae quorum sensing circuit” value (shortened to “activation”) in series [1] is “activated”.

On to `CCCCCCCC(=O)[C@@H](O)CC` [C11(S), (S)-3-hydroxyundecan-4-one], for which the “activation” value in series [1] is “activated”.

As for `CCCCCCCCCC(=O)[C@@H](O)CC` [CAI-1, (S)-3-hydroxytridecan-4-one], in series [1], the “bioluminescence as a percentage” value worked out at 100%. Also, the “activation” value in series [1] was “activated”. The TcpA production entry in series [2] (cqsA+ V. cholerae strain, FIG. 4b middle row) is “repress TcpA production; also recorded: decreased”; in series [2] (ΔcqsA V. cholerae strain, CAI-1 at concentrations up to 10 μM, FIG. 4b top row), “repress TcpA production; also recorded: substantially repressed”; in series [2] (ΔcqsS V. cholerae strain, FIG. 4b bottom row), “no effect”. The heat stability entry is reported as “subject to degradation” in series [3] (high temperatures (up to 80° C.)) and “heat stable” in series [3] (physiologically relevant temperatures, 5, 20, 60 minutes or overnight). Further, in series [4], the pH stability result is “stable under a wide range of pH values”. Further, the “effect of cells on CAI-1 levels” value in series [5] and in series [6] was “do not adversely affect CAI-1 levels” each time.

In the case of `CCCCCCCCC(=O)[C@@H](O)CC` [Compound 5, (S)-3-hydroxydodecan-4-one], in series [1], the “bioluminescence as a percentage” value is given as “twenty” and the “activation” value is given as “activated”.

For the compound `CCCCCCCCC(=O)[C@H](O)CC` [Compound 6, (R)-3-hydroxydodecan-4-one], in series [1], the “bioluminescence as a percentage” value is listed as “twenty” and the “activation” value was “activated”.

As for `CCCCCCCCCC(=O)[C@H](O)CC` [Compound 7, (R)-3-hydroxytridecan-4-one], in series [1], the “bioluminescence as a percentage” value is listed as “forty” and the “activation” value was “activated”.

For `CCCCCCCCCC(=O)C(=O)CC` [Compound 10, tridecane-3,4-dione], the “bioluminescence as a percentage” value in series [1] is “ten”; in series [1] (listed as tridecan-3,4-dione), 10%.

In the case of `CCCCCCCCCC(=O)C(N)CC.Cl` (stereo not drawn) [Compound 22, 3-aminotridecan-4-one hydrochloride], the “bioluminescence as a percentage” value in series [1] is “equivalent activity to CAI-1”.

With `CCCCCCCCCC(=O)C(O)CC` (stereo not drawn) [thirteen-carbon molecule, 3-hydroxytridecan-4-one], the “fold greater biological activity than the molecule one carbon shorter” value in series [1] was 8 fold.

As to `CCCCCCCCC(=O)C(O)CC` (stereo not drawn) [twelve-carbon molecule, 3-hydroxydodecan-4-one], the “fold greater biological activity than the molecule one carbon shorter” value in series [1] was determined as 8 fold.
